Laboratory results reported in paper doi:10.1101/2024.08.21.608984v2 (biorxiv, 2025).

Experiments:
GluN1/GluN2A NMDAR = GluN1/GluN2A NMDAR (Homo sapiens, UniProt Q05586+Q12879, Q05586:Y647S); assay: two-electrode voltage clamp, Xenopus oocytes; assay type: cell-based
GluN1/GluN2B NMDAR = GluN1/GluN2B NMDAR (Homo sapiens, UniProt Q05586+Q13224, Q05586:Y647S); assay: two-electrode voltage clamp, Xenopus oocytes; assay type: cell-based
GluN1/GluN2B NMDAR, sequence (Q13224 27-1484, other chains not shown): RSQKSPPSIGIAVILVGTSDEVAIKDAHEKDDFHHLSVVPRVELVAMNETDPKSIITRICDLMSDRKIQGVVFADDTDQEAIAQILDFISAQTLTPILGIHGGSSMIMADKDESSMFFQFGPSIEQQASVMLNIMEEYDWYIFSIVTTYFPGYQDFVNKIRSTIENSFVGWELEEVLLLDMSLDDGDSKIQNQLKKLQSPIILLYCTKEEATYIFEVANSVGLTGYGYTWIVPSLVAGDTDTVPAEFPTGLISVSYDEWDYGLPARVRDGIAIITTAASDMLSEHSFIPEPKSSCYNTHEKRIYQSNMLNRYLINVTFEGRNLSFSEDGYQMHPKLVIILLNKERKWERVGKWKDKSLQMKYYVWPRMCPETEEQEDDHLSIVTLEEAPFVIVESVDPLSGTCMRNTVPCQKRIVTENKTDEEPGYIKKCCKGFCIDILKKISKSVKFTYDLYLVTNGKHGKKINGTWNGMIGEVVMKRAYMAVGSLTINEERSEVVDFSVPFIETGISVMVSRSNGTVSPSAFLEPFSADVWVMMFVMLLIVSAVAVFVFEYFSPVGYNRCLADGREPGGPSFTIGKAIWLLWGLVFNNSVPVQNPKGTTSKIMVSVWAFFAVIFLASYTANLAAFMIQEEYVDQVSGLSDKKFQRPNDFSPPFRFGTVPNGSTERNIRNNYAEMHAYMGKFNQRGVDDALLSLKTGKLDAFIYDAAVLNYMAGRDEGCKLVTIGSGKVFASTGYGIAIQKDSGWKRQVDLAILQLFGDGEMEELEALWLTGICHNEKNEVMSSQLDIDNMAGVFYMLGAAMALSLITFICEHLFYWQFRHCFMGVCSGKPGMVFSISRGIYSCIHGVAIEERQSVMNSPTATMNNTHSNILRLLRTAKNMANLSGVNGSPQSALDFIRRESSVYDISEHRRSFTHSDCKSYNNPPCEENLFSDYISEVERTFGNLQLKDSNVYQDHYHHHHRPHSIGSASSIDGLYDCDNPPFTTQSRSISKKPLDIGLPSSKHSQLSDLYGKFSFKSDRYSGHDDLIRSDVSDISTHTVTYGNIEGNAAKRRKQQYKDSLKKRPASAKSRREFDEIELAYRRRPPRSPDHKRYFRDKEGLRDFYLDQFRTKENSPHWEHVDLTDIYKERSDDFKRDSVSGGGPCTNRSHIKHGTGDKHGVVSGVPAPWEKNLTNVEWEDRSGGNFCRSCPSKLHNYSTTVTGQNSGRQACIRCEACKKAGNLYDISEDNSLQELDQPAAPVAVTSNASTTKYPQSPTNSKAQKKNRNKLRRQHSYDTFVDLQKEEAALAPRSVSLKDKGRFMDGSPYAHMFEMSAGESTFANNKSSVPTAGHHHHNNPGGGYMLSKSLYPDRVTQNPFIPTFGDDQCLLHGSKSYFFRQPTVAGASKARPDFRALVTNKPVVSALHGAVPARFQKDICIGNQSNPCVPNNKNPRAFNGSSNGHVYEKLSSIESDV

GluN1/GluN2A NMDAR, sequence (Q12879 23-1464, other chains not shown): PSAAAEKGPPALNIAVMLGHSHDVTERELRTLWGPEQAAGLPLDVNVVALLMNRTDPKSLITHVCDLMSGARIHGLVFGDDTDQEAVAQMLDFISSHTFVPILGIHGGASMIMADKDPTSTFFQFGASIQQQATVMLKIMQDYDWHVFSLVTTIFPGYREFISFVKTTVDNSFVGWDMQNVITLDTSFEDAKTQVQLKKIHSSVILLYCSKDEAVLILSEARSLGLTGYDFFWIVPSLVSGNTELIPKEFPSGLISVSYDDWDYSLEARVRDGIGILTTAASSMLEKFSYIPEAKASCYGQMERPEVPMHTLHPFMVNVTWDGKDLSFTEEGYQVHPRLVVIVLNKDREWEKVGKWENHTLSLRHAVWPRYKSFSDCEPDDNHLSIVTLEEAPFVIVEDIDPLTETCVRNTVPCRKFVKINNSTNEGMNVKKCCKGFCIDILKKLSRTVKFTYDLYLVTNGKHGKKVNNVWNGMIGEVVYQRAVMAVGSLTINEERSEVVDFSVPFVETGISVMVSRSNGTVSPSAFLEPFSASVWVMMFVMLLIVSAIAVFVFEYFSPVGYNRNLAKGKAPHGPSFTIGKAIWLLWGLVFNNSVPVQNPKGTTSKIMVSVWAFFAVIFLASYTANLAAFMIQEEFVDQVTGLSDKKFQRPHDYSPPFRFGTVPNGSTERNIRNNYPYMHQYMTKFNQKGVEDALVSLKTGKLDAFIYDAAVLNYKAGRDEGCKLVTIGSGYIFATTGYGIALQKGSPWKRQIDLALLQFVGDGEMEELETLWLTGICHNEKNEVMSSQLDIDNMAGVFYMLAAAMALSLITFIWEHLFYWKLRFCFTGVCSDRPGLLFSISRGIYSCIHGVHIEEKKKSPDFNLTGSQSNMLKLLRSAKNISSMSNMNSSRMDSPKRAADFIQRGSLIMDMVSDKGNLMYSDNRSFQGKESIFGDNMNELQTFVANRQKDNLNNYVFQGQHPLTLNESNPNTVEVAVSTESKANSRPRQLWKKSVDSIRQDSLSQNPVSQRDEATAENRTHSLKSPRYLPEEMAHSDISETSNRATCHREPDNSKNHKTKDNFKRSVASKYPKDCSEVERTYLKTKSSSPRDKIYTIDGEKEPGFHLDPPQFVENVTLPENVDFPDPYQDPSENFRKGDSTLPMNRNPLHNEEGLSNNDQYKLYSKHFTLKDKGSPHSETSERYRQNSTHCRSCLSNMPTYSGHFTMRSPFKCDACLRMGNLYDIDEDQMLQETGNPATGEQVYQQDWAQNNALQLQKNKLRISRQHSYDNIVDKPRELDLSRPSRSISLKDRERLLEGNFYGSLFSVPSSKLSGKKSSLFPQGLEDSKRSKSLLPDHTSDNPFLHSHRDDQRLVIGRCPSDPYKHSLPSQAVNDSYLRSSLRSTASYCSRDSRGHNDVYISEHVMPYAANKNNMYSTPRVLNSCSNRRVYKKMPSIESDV

EC50 (GluN1/GluN2A NMDAR): 36 nM
EC50 (GluN1/GluN2B NMDAR): 17 nM
Compound: NCC(=O)O [glycine]
